Measurements: patent publication US8293783B2, “Use of artemisinin derivatives for the treatment of asthma and chronic obstructive pulmonary disease (COPD)” (National University of Singapore, priority 2009, dated 2012)

Experiments:
[1] = system: PI3K/Akt signaling pathway; assay: TNF-α-induced signalling in normal human bronchial epithelial cells; assay type: cell-based
[2] = system: thoracic lymph node cells; assay: OVA-specific responses in thoracic lymph node cultures from treated mice; assay type: cell-based, mouse
Protocol: (§1) To determine the effects of artesunate on OVA-specific immune responses in lymphocytes, thoracic lymph node cells were prepared as described (24). Cells were exposed to […] OVA for 72 hours. Concanavalin A (Con A, 10 μg/ml) was used as a positive control. Supernatants from parallel triplicate cultures were analyzed for cytokine levels by ELISA. Normal human bronchial epithelial cells were cultured in optimized bronchial epithelial bulletkit medium with supplements (Lonza, Basel, Switzerland). Cells were pretreated with 10 μM artesunate or vehicle (0.01% DMSO) 4 hours before stimulation with […] epidermal growth factor (EGF). Total and nuclear proteins, and mRNA were extracted from cells at specified time intervals.

p65 NF-κB [3] = assay: p65 NF-κB DNA-binding activity in EGF-stimulated normal human bronchial epithelial cells; assay type: cell-based; details: 10 μM artesunate; EGF 30 min
Protocol: as §1
(§2) Lung and cell culture protein lysates ([…] per lane) were separated by 10% SDS-PAGE and immunoblots were developed as described (24). Immunoblots were probed with anti-Akt, anti-phospho-Akt (Ser473), anti-tuberin, anti-phosphotuberin (Ser1462), anti-p70S6K, anti-phospho-p70S6K (Ser389), anti-4E-BP1, anti phospho-4E-BP1 (Ser65), and anti-β-actin antibodies (Cell Signaling Technology, Beverly, Mass.). […] Primers for inflammatory genes are shown in Table 1 and mRNA expression was analyzed as described (24). Nuclear proteins were analyzed for NF-κB DNA-binding activity using TransAM NF-κB transcription factor assay kit (Active Motif, Carlsbad, Calif.). […]

[4] = system: OVA-induced lung tissue eosinophilia and mucus hypersecretion in BALB/c mice; assay: Histologic analysis of lung tissue (H&E, PAS) in OVA-induced mouse asthma model; assay type: in vivo; details: 30 mg/kg, 24 h after last OVA challenge
Protocol: Female BALB/c mice, 6 to 8 weeks old (Interfauna, East Yorkshire, UK), were sensitized and challenged with OVA as described (24). Artesunate (3, 10, and 30 mg/kg; Sigma, St. Louis, Mo.) or vehicle (6% dimethyl sulfoxide [DMSO]) in 0.1 ml saline was given by intraperitoneal injections 2 hours before each OVA aerosol challenge. Saline aerosol was used as a negative control. Animal experiments were performed according to the Institutional guidelines for Animal Care and Use Committee of the National University of Singapore. Lungs were fixed in 10% neutral formalin, paraffinized, cut into 5-μm sections, and stained with hematoxylin and eosin (H&E) for examining cell infiltration and with periodic acid-Schiff stain (PAS) for measuring mucus production. Quantitative analysis was performed blinded as described (24). Quantitative analyses of inflammatory cell infiltration and mucus production in lung sections were performed as previously described (24). […] To determine the extent of mucus production, goblet cell hyperplasia in the airway epithelium was quantified blind using a 5-point grading system: 0, no goblet cells; 1, <25%; 2, 25-50%; 3, 50-75%; 4, >75%.

[5] = system: human rheumatoid arthritis fibroblast-like synoviocytes; details: TNF-α-stimulated; cited from earlier work
[6] = system: normal human bronchial epithelial cells; assay: Cytokine mRNA expression in EGF-stimulated normal human bronchial epithelial cells; assay type: cell-based; details: 10 μM artesunate; EGF 12 hours
Protocol: as §1
(§3) Lung and cell culture protein lysates ([…] per lane) were separated by 10% SDS-PAGE and immunoblots were developed as described (24). Immunoblots were probed with anti-Akt, anti-phospho-Akt (Ser473), anti-tuberin, anti-phosphotuberin (Ser1462), anti-p70S6K, anti-phospho-p70S6K (Ser389), anti-4E-BP1, anti phospho-4E-BP1 (Ser65), and anti-β-actin antibodies (Cell Signaling Technology, Beverly, Mass.). Proteins were separated by 10% SDSPAGE, probed with anti-Akt, anti-phospho-Akt (Ser473), anti-tuberin, antiphospho-tuberin (Ser1462), anti-p 70S6K, anti-phospho-p70S6K (Ser389), anti-4EBP1, and anti-phospho-4E-BP1 (Ser65), and developed by enhanced chemiluminescence reagent. β-actin was used as an internal control. The experiments were repeated for three times. Primers for inflammatory genes are shown in Table 1 and mRNA expression was analyzed as described (24). Nuclear proteins were analyzed for NF-κB DNA-binding activity using TransAM NF-κB transcription factor assay kit (Active Motif, Carlsbad, Calif.). Total mRNA was extracted using TriZol reagent and the PCR products were separated in a 2% agarose gel visualized under UV light. β-actin was used as an internal control. The experiments were repeated for three times

[7] = system: OVA-induced AHR in BALB/c mice; assay: Airway hyperresponsiveness (AHR) to methacholine in mechanically ventilated mice; assay type: in vivo, mouse; details: 30 mg/kg; OVA-challenged mice; methacholine 0.5-8.0 mg/ml
Protocol: Female BALB/c mice, 6 to 8 weeks old (Interfauna, East Yorkshire, UK), were sensitized and challenged with OVA as described (24). Artesunate (3, 10, and 30 mg/kg; Sigma, St. Louis, Mo.) or vehicle (6% dimethyl sulfoxide [DMSO]) in 0.1 ml saline was given by intraperitoneal injections 2 hours before each OVA aerosol challenge. Saline aerosol was used as a negative control. […] Mice were anesthetized and tracheotomy was performed as described (24). The trachea was intubated with a cannula that was connected to the pneumotach, ventilator and nebulizer. Airway resistance (RI) and dynamic compliance (Cdyn) in response to increasing concentrations of nebulized mechacholine (0.5-8.0 mg/ml) were recorded using a whole-body plethysmograph chamber (Buxco, Sharon, Conn.) as described (24). Results are expressed as a percentage of the respective basal values in response to phosphate-buffered saline (PBS).

[8] = system: phosphoinositide 3-kinase (PI3K)/Akt signaling pathway; details: cited from earlier work
macrophages = details: cited from earlier work
[9] = system: PI3K/Akt signaling pathway; assay: Immunoblotting of PI3K/Akt phosphorylation cascade in lung tissues; assay type: in vivo, mouse; details: 30 mg/kg; OVA-challenged mice; to the basal levels
Protocol: (§4) Female BALB/c mice, 6 to 8 weeks old (Interfauna, East Yorkshire, UK), were sensitized and challenged with OVA as described (24). Artesunate (3, 10, and 30 mg/kg; Sigma, St. Louis, Mo.) or vehicle (6% dimethyl sulfoxide [DMSO]) in 0.1 ml saline was given by intraperitoneal injections 2 hours before each OVA aerosol challenge. Saline aerosol was used as a negative control. Animal experiments were performed according to the Institutional guidelines for Animal Care and Use Committee of the National University of Singapore.
as §3

[10] = system: OVA-induced serum Ig production in BALB/c mice; assay: Serum Ig levels by ELISA in OVA-induced mouse asthma model; assay type: in vivo
Protocol: as §4, with “Singapore. Mice were anesthetized 24 hours after the last aerosol challenge and bronchoalveolar lavage (BAL) was performed as described (24). BAL fluid total and differential cell counts, and cytokine and chemokine levels were determined as described (24). Blood was collected by cardiac puncture, and serum levels of total IgE and OVA-specific IgE, IgG1, and IgG2a levels were determined as described (24).” for “Singapore.”

[11] = system: PI3K/Akt signaling pathway; assay: Immunoblotting of EGF-stimulated normal human bronchial epithelial cells; assay type: cell-based; details: 10 μM artesunate, pretreated 4 h; EGF 5, 15 and 30 min
Protocol: as §1, §3

[12] = system: OVA-induced inflammatory cell recruitment in BALB/c mice; assay: BAL fluid total and differential cell counts in OVA-induced mouse asthma model; assay type: in vivo
Protocol: as §4, with “Singapore. Mice were anesthetized 24 hours after the last aerosol challenge and bronchoalveolar lavage (BAL) was performed as described (24). BAL fluid total and differential cell counts, and cytokine and chemokine levels were determined as described (24). Blood was collected by cardiac puncture, and serum levels of total IgE and OVA-specific IgE, IgG1, and IgG2a levels were determined as described (24).” for “Singapore.”

[13] = system: peripheral blood leukocytes; assay: Flow cytometric analysis of peripheral blood leukocytes; assay type: in vivo, mouse; details: artesunate-treated vs saline-challenged, OVA-challenged and vehicle control mice; data not shown
Protocol: BAL fluid was collected 24 hours after the last OVA or saline aerosol challenge, and total and differential cell counts were performed. […] We have conducted flow cytometric analysis of peripheral blood leukocytes obtained from saline challenged, OVA-challenged, vehicle control, and artesunate-treated mice.

[14] = system: OVA-induced inflammatory gene expression in lung tissues; assay: Lung mRNA expression of inflammatory genes (RT-PCR); assay type: in vivo, mouse; details: 30 mg/kg pretreatment; OVA-challenged mice
Protocol: as §4, §3

p65 NF-κB [15] = assay: Nuclear p65 NF-κB DNA-binding activity in lung tissues (TransAM ELISA kit); assay type: in vivo, mouse; details: 30 mg/kg; to basal level
Protocol: as §4, §2

[16] = system: OVA-induced BAL fluid cytokine and chemokine levels in BALB/c mice; assay: BAL fluid cytokine and chemokine levels by ELISA in OVA-induced mouse asthma model; assay type: in vivo
Protocol: as §4, with “Singapore. Mice were anesthetized 24 hours after the last aerosol challenge and bronchoalveolar lavage (BAL) was performed as described (24). BAL fluid total and differential cell counts, and cytokine and chemokine levels were determined as described (24). Blood was collected by cardiac puncture, and serum levels of total IgE and OVA-specific IgE, IgG1, and IgG2a levels were determined as described (24).” for “Singapore.”

[17] = mice pretreated with 30 mg/kg, cells cultured 72 h with OVA, vs DMSO
[18] = 3, 10 and 30 mg/kg i.p. 2 h before each OVA challenge, 24 h after last challenge, dose-dependent, vs DMSO vehicle control
[19] = 3, 10, 30 mg/kg, dose-dependent, to a lesser extent than IL-13 and eotaxin, vs DMSO control
[20] = 3, 10, 30 mg/kg, dose-dependent, vs DMSO control

C[C@H]1[C@H](OC(=O)CCC(=O)O)O[C@@H]2O[C@@]3(C)CC[C@H]4[C@H](C)CC[C@@H]1[C@@]24OO3 [Artesunate, artesunate]
TNF-α-induced NF-κB DNA binding activity [1]: inhibited | TNF-α-induced phosphorylation of Akt [1]: inhibited | TNF-α-induced phosphorylation of p70 S6 kinase [1]: inhibited | TNF-α-induced phosphorylation of phosphoinositide 3-kinase (PI3K) [1]: inhibited | in vitro OVA-specific IL-4 production [2, 17]: significantly (P<0.05) lowered | in vitro OVA-specific IL-5 production [2, 17]: significantly (P<0.05) lowered | in vitro OVA-specific IL-13 production [2, 17]: significantly (P<0.05) lowered | in vitro OVA-specific IFN-γ production ([2]; mice treated with 30 mg/kg, cells cultured 72 h with OVA): elevated | Con A-induced production of IL-4, IL-5, IL-13 and IFN-γ ([2]; parallel cultures, Con A 10 μg/ml, data not shown): not affected | EGF-induced NF-κB transactivation (DNA binding activity) (p65 NF-κB [3]): markedly inhibited | OVA-induced mucus hypersecretion (PAS) [4]: significantly halted | eosinophil-rich leukocyte infiltration in lung tissue (H&E) ([4]; vs DMSO control): markedly diminished | production of IL-1β [5]: block | production of IL-6 [5]: block | production of IL-8 [5]: block | EGF-induced up-regulation of IL-6 mRNA expression [6]: noticeably blocked | EGF-induced up-regulation of IL-8 mRNA expression [6]: noticeably blocked | EGF-induced up-regulation of MCP-1 mRNA expression [6]: noticeably blocked | EGF-induced up-regulation of RANTES mRNA expression [6]: noticeably blocked | dynamic compliance (Cdyn) in response to methacholine aerosol [7]: restored | lung/airway resistance (RI) in response to methacholine aerosol [7]: dramatically reduced | activity against the PI3K/Akt signaling pathway [8]: strong inhibitory activity | lipopolysaccharide-induced production of IL-6 (macrophages): inhibits | lipopolysaccharide-induced production of TNF-α (macrophages): inhibits | lipopolysaccharide-induced production of nitric oxide (NO) (macrophages): inhibits | expression of TLR9 (macrophages; lipopolysaccharide-induced): inhibits | expression of toll-like receptor 4 (TLR4) (macrophages; lipopolysaccharide-induced): inhibits | phosphorylation of 4E-BP1 in lung tissues [9]: markedly reduced | phosphorylation of Akt in lung tissues [9]: markedly reduced | phosphorylation of p70S6K in lung tissues [9]: markedly reduced | phosphorylation of tuberin in lung tissues [9]: markedly reduced | serum total IgE level ([10]; 24 h after last OVA aerosol challenge): no effect | serum OVA-specific IgG2a level ([10]; OVA-challenged mice): no effects | serum OVA-specific IgE level ([10]; even at the lowest dose (3 mg/kg)): strongly suppressed | serum OVA-specific IgG1 level ([10]; suppressed to a lesser extent than OVA-specific IgE): significant effects at higher dose | EGF-induced phosphorylation of 4E-BP1 [11]: markedly inhibited | EGF-induced phosphorylation of Akt [11]: markedly inhibited | EGF-induced phosphorylation of p70S6K [11]: markedly inhibited | EGF-induced phosphorylation of tuberin [11]: markedly inhibited | eosinophil count in BAL fluid [12, 18]: drastically decreased | total cell count in BAL fluid [12, 18]: drastically decreased | lymphocyte count in BAL fluid ([12]; OVA-challenged mice): significant drop | percentages of CD3+, CD4+, CD8+ T cells, B cells, NK cells, neutrophils and monocytes in peripheral blood [13]: Similar | lung AMCase mRNA level [14]: strong suppression | lung E-selectin mRNA level [14]: strong suppression | lung ICAM-1 mRNA level [14]: strong suppression | lung IL-17 mRNA level [14]: strong suppression | lung IL-33 mRNA level [14]: strong suppression | lung Muc5ac mRNA level [14]: strong suppression | lung TSLP mRNA level [14]: strong suppression | lung VCAM-1 mRNA level [14]: strong suppression | lung YKL-40 mRNA level [14]: strong suppression | lung Ym-2 mRNA level [14]: strong suppression | lung iNOS mRNA level [14]: strong suppression | OVA-induced NF-κB transactivation (p65 DNA-binding) in lung tissues (p65 NF-κB [15]): significantly suppressed | IL-4 level in BAL fluid [16, 19]: reduced | IL-5 level in BAL fluid [16, 19]: reduced | IL-13 level in BAL fluid [16, 20]: drastically reduced | eotaxin level in BAL fluid [16, 20]: drastically reduced | IFN-γ level in BAL fluid ([16]; 10 and 30 mg/kg): up-regulated
